Data on one molecule can be found in patent US20260216166A1, “COMPOUND FOR TREATMENT OF ERECTILE DYSFUNCTION” (Initiator Pharma A/S, priority 2023, published 2026).

Molecules are shown by their SMILES. Where two headings read alike, the source gives them in different places.

Series [1] is described as follows: Phase I ascending single oral dose pharmacokinetics in healthy male subjects. The series is classed as in vivo, human. The following applies: for half-life / Tmax: male, human, plasma. The method, then:
The study was a Phase I, randomised, double-blind, placebo-controlled, ascending single oral dose, safety, tolerability, pharmacokinetic (PK) and pharmacodynamics (PD) study of IP2015 in healthy male subjects.
Each subject received one oral dose of IP2015 or matched placebo. The starting dose of IP2015 was 0.01 mg in Cohort 1. The dose level was to be escalated to a maximum of 0.05 mg in Cohort 2 and a maximum of 0.2 mg in Cohort 3. The doses in the remaining five cohorts were to be determined based on the dose escalation criteria. In every cohort, no more than 2 subjects were dosed on the first dosing day (1 active; 1 placebo) such that no more than 1 subject received an active IP2015 dose for the first time at each dose level.
The IP2015 or matched placebo was administered once on the morning of Day 1 as an oral solution in the fasted state. The dose was taken with 240 ml of water at room temperature. Subjects/participants were fasted overnight prior to dosing until 4 hours postdose. Water was allowed ad libitum except for 1 hour before and 1 hour after dosing.
The doses used in each cohort were as follows: • Cohort 1-0.01 mg • Cohort 2-0.05 mg • Cohort 3-0.2 mg • Cohort 4-0.6 mg • Cohort 5-1.8 mg • Cohort 6-5.4 mg • Cohort 7-16.2 mg • Cohort 8-10 mg
The study also evaluated plasma PK concentrations and parameters including but not limited to: area under the plasma concentration vs time curve (AUC), from time zero to the last quantifiable concentration (AUC0-t), AUC from zero to infinity (AUC0-∞), observed maximum plasma concentration (Cmax), time to reach maximum plasma concentration (tmax) and terminal elimination half-life (T½) in healthy male subjects. Blood samples for the determination of plasma concentrations of IP2015 were collected at predose, and 0.25, 0.5, 1, 1.5, 2, 3, 4, 6, 8, 12, 16, 24, 36 and 48 hours postdose.
Safety parameters were listed and summarised using descriptive statistics. Pharmacokinetic parameter estimates were calculated using noncompartmental methods. Pharmacokinetic data were listed for each subject/patient and summarised by descriptive statistics.
Dose proportionality was analysed for Part A with a linear regression model using the logarithm of a PK parameter as responsible variable and the logarithm of the dose as the independent variable. The linear regression model can be expressed as: […]
The above model was applied to the following PK parameters; AUC0-t, AUC0-∞ and Cmax. Based on the linear regression model, the dose proportionality coefficient (slope) and its two-sided 90% confidence interval (CI) were estimated. Dose proportionality was declared if the 90% CI for the slope was completely contained in the following range 16: 1+log (0.5)/log (r), 1+log (2)/log (r), where r is the high dose/low dose.

Series [2] relates to sperm count and motility. The series is described as follows: Semen analysis after repeat single oral doses in male subjects with ED. The series is classed as in vivo, human. The following applies: 5 mg or 10 mg, four weekly doses; Day -7 versus Week 4. The method, then: On Day-7, and at the Week 1 (Day 1), Week 2, Week 3, Week 4 and Follow-up visits, all groups were asked to complete the IIEF-15 questionnaire. Group 2 was asked to complete a Visual Stimulation Assessment using a RigiScan Plus Monitor on Day-7, Week 1 (Day 1) and Week 4. Group 2 was also required to provide blood samples for pharmacokinetic assessment on Week 1 (Day 1) and Week 4. Group 3 was required to provide semen samples on Day-7 and Week 4.
Efficacy was assessed through the International Index of Erectile Function (IIEF)-15 questionnaire. The change from baseline in responses to questions of the IIEF-15 questionnaire, including questions regarding erectile function, orgasmic function, sexual desire, intercourse satisfaction and overall satisfaction domain scores, was determined at different time points of the study. RigiScan assessments during the stimulus assessment, and sperm count and motility by semen sample collection was used for efficacy evaluation. Safety was assessed through AE reporting, 12-lead ECG, vital signs, physical examinations and clinical laboratory evaluations. Pharmacokinetics was assessed by blood sampling.

Where [3] appears, read: 0.2 to 16.2 mg single dose range.

On to `COc1cc2ccc(OC3CC4CCC(C3)N4)cc2oc1=O` (stereo not shown) [IP2015, 7-[(8-azabicyclo[3.2.1]octan-3-yl)oxy]-3-methoxy-chromen-2-one], for which the “increase of systemic exposure with dose based on AUC0-t” value in series [1] (setting [3]) is reported as “greater than dose-proportional manner”. Besides, the “increase of systemic exposure with dose based on AUC0-∞ and Cmax” value in series [1] (setting [3]) is listed as “slightly more than dose-proportional manner”. In addition, the “subjects with plasma concentrations below the LLOQ” value in series [1] (healthy males, 0.2 mg) was 3/7. The “plasma concentrations of IP2015” value in series [1] (healthy males, single oral 0.01 mg and 0.05 mg) is “below the LLOQ for all subjects”. The half-life in series [1] (oral, healthy males, 0.6 mg, calculated for 1/6 subjects, read-out: mean t½ (converted)) was 14.5 h; in series [1] (oral, healthy males, 1.8 mg, calculated for 3/6 subjects, read-out: mean t½ (converted)), 16.1 h; in series [1] (oral, healthy males, range of means across 5.4 mg to 16.2 mg doses, read-out: mean T½), 23.1 to 26.3 h. The Tmax (in general, the time from dosing to the highest level) was 1 to 6 h in series [1] (oral, healthy males, across all dose levels, read-out: tmax range) and 2.25 to 5 h in series [1] (healthy males, range of medians across single oral doses 0.2-16.2 mg, read-out: median tmax). Also, the “sperm count, motility, or morphology” value in series [2] is “did not have negative effects on sperm count, motility, or morphology”.
